In patent US7851650B2, “Compounds for treating inflammation and pain” (Olatec Industries LLC, priority 2009, dated 2010):

Tested on: arachidonic acid induced ear swelling
Assay: topical arachidonic acid induced ear swelling model in mice
Assay type: in vivo
Details: male ICR mice, applied 30 min before and 15 min after arachidonic acid, active compound 2 mg/ear x 2, indomethacin 3 mg/ear x 2, relative to lauryl lactate vehicle
Protocol: Male ICR mice weighing 22±2 g were used in the experiment. Arachidonic acid (2 mg in 20 μL acetone) was applied topically onto the anterior and posterior surfaces of the right ear of test animals. […] Ear swelling was then measured using a Dyer model micrometer gauge at 60, 90 and 120 minutes after arachidonic acid induction of ear edema as an index of inflammation.

SMILES	%, ear swelling inhibition after arachidonic acid, 60 min.	%, ear swelling inhibition after arachidonic acid, 90 min.	%, ear swelling inhibition after arachidonic acid, 120 min.
CS(=O)(=O)CCC(NCl)C(=O)O (stereo not drawn) [Active compound/lauryl lactate, 2-N chloro-4-methylsulfonyl-butyric acid]	33%	31%	34%
COc1ccc2c(c1)c(CC(=O)O)c(C)n2C(=O)c1ccc(Cl)cc1 [Indomethacin/lauryl lactate, indomethacin]	71%	65%	70%
